{"source": "patent US12268710B2", "about": "“Method of treating severe forms of pulmonary hypertension” (ReversPAH LLC, priority 2019, dated 2025)", "key": {"[1]": {"system": "Sugen/Hypoxia rats (SuHx) with established PAH", "assay": "Sugen 5416/chronic hypoxia rat model of severe angio-obliterative PAH", "assay_type": "in vivo", "experimental": "Specifically, FIGS. 4A and B, which are from the paper which included Norbert F. Voelkel as a senior author, show the compared results of control rats, Sugen/Hypoxia rats (SuHx) with established PAH, and SuHx rats treated with TTM in an amount of 10 mg/kg every other day for 10 days. […] FIG. 5 provides the results, which compares the degree of obliteration of c-kit^+ expressing stem cells in the lung vessels of Sugen/Hypoxia rats (SuHx) treated with a vehicle (SuHx-vehicle) and Sugen/Hypoxia rats treated with TTM (SuHx-TTM) in an amount of 10 mg/kg every other day for 10 days. Third, copper plays a role in the alteration of genes of the cytochrome P450. The lung and, in particular, the lung vascular endothelial cells (EC) are involved in drug metabolism and the handling of toxic substances. It is known that cigarette smoke toxins highly up-regulate the expression of specific drug metabolizing genes, the genes of the cytochrome P450 super-family. There are 56 known cytochrome P450 genes coding for 56 isozymes. These enzymes metabolize 75% of all drugs in use, including all of the vasodilator drugs conventionally used for PAH treatment. These enzymes also are involved in cell growth and differentiation, in cholesterol and estrogen metabolism and for many years a role of these enzymes in the pathogenesis of cancers has been examined (in particular prostate, breast and lung cancer) (Kwapiszewska G et al, Circulation Research, submitted 2019). Norbert F. Voelkel discovered that the drug Sugen 5416, a component of the Sugen-induced rat models of angio-obliterative PAH, induces some of these cytochrome P450 isozyme genes more than 200-fold (Al-Husseini et al, Pulm Circ. 2015 March; 5(1); 101-116). […] Specifically, the vessel lumina are occluded in the not-treated animals (SuHx), whereas they have been reopened after the treated animals (SuHx+TTM) received 10 mg/kg TTM every other day for 10 days. […] The treatment lasted 3 weeks (21 days) with DEC being administered in an amount of 50 mg/kg daily treatment. Norbert F. Voelkel concludes that the anti-inflammatory drug DEC affects developing PAH and is partially effective once angio-obliterative PAH has been established."}, "[2]": {"system": "patient with pulmonary veno-occlusive disease (PVOD)", "assay": "Low-dose MTX treatment of one patient with pulmonary veno-occlusive disease", "assay_type": "in vivo, human", "description": "Another possible co-drug is methotrexate. […] MTX is of particular interest because it is an inhibitor of the enzyme dihydrofolate reductase and thereby inhibits DNA, RNA and protein synthesis, which is the desired action in cancer treatment at high MTX doses. Norbert Voelkel has prescribed MTX for one patient with pulmonary veno-occlusive disease, which is a rare form of severe PH. […] The anti-inflammatory and immune system affecting action of MTX is accomplished with low doses. […] PVOD is a fatal and extremely rare PH disorder. […] Vasodilator-induced lung edema precludes the use of vasodilator drugs in these patients."}, "[3]": {"system": "rodent models of PH", "details": "in vivo; cited from earlier work"}, "[4]": {"system": "cytochrome P450 isozyme genes", "assay": "Induction of cytochrome P450 isozyme genes by Sugen 5416", "details": "Al-Husseini et al, Pulm Circ. 2015", "description": "Third, copper plays a role in the alteration of genes of the cytochrome P450. The lung and, in particular, the lung vascular endothelial cells (EC) are involved in drug metabolism and the handling of toxic substances. It is known that cigarette smoke toxins highly up-regulate the expression of specific drug metabolizing genes, the genes of the cytochrome P450 super-family. There are 56 known cytochrome P450 genes coding for 56 isozymes. These enzymes metabolize 75% of all drugs in use, including all of the vasodilator drugs conventionally used for PAH treatment. These enzymes also are involved in cell growth and differentiation, in cholesterol and estrogen metabolism and for many years a role of these enzymes in the pathogenesis of cancers has been examined (in particular prostate, breast and lung cancer) (Kwapiszewska G et al, Circulation Research, submitted 2019). Norbert F. Voelkel discovered that the drug Sugen 5416, a component of the Sugen-induced rat models of angio-obliterative PAH, induces some of these cytochrome P450 isozyme genes more than 200-fold (Al-Husseini et al, Pulm Circ. 2015 March; 5(1); 101-116). […] Specifically, the vessel lumina are occluded in the not-treated animals (SuHx), whereas they have been reopened after the treated animals (SuHx+TTM) received 10 mg/kg TTM every other day for 10 days."}, "[5]": {"system": "colon cancer", "details": "by apoptosis and cellular senescence; cited from earlier work"}, "[6]": {"system": "angiogenesis", "details": "high dosage; through the induction of apoptosis; cited from earlier work"}, "[7]": {"system": "monocrotaline-induced pulmonary hypertension", "details": "through the bone morphogenetic protein signaling pathway; cited from earlier work"}, "[8]": {"system": "silica-induced lung inflammation and fibrosis", "details": "by inhibiting T-helper 17 cell (TH 17); cited from earlier work"}, "[9]": {"system": "Sugen/Hypoxia rats (SuHx) with established PAH", "details": "Farkas D. et al 2014; cited from earlier work"}, "[10]": {"details": "DEC study 2015 (Al Husseini et al)"}, "[11]": {"details": "after lung vascular disease established, 50 mg/kg daily for 3 weeks (21 days)"}, "[12]": {"details": "established severe PAH, treated for two weeks"}}, "note": "“Also recorded” adds a separate entry of the source.", "data": [{"smiles": "CCN(CC)C(=O)N1CCN(C)CC1", "note": "[DEC, diethylcarbamazine]", "values": [{"measurement": "muscularization of pulmonary arterioles", "setting": "[1]; [10]", "value": "blunted"}, {"measurement": "number of fully obliterated lung vessels", "setting": "[1]; [10]", "value": "reduced"}, {"measurement": "occluded vessels (FIGS. 8A-C)", "setting": "[1]; SuHx+DEC vs SuHx", "value": "reopens occluded vessels"}, {"measurement": "degree of PAH", "setting": "[1]; [11]", "value": "reduced"}, {"measurement": "degree of perivascular inflammation", "setting": "[1]; [11]", "value": "reduced"}, {"measurement": "number of obliterated arterioles", "setting": "[1]; [11]", "value": "reduced"}]}, {"smiles": "CN(Cc1cnc2nc(N)nc(N)c2n1)c1ccc(C(=O)N[C@@H](CCC(=O)O)C(=O)O)cc1", "note": "[MTX, Methotrexate]", "values": [{"measurement": "reversal of the PH", "setting": "[2]", "value": "did not reverse the PH"}, {"measurement": "survival", "setting": "[2]", "value": "prolonged survival"}, {"measurement": "progression of the disease (PVOD)", "setting": "[2]; low dose MTX", "value": "arrested the proliferative progression; also recorded: halted"}]}, {"smiles": "O=c1c(O)c(-c2ccc(O)c(O)c2)oc2cc(O)cc(O)c12", "note": "[Quercetin]", "values": [{"measurement": "vascular remodeling in rodent models of PH", "setting": "[3]", "value": "inhibit"}]}, {"smiles": "Cc1cc(C)c(/C=C2\\C(=O)Nc3ccccc32)[nH]1", "note": "[Sugen 5416]", "values": [{"measurement": "induction of some cytochrome P450 isozyme genes", "setting": "[4]", "value": "more than 200 fold"}]}, {"smiles": "[NH4+].[NH4+].[SH-].[SH-].[S]=[Mo]=[S]", "note": "[TTM, ammonium tetrathiomolybdate]", "values": [{"measurement": "expression of integrin protein alpha v beta 3 in lung (FIGS. 4A, B)", "setting": "[1]; 10 mg/kg every other day for 10 days", "value": "reduced; also recorded: normalized"}, {"measurement": "lung vessel lumina / arterioles (immunohistochemistry, FIG. 2)", "setting": "[1]; 10 mg/kg every other day for 10 days, intraperitoneal, SuHx+TTM vs SuHx", "value": "reopened; also recorded: reopens lung arterioles"}, {"measurement": "number of c-kit+ precursor cells in the lung vascular lesions (FIG. 5)", "setting": "[1]; 10 mg/kg every other day for 10 days, vs SuHx-vehicle", "value": "reduced the number of c-kit+ precursor cells"}, {"measurement": "expression of anoikis marker protein BIM in lung tissue (FIG. 3)", "setting": "[1]; SuHx-TTM vs SuHx, referenced to beta-actin", "value": "upregulated"}, {"measurement": "anoikis, evidenced by cells expressing the marker BIM", "setting": "[1]; TTM-treated SuHx rats", "value": "induced anoikis"}, {"measurement": "occluded lung vessels", "setting": "[1]; [12]", "value": "reopening of occluded lung vessels"}, {"measurement": "pulmonary arterial pressure", "setting": "[1]; [12]", "value": "cut the pulmonary arterial pressure in half"}, {"measurement": "reversal of established severe PAH", "setting": "[1]; [12]", "value": "reversed the PAH"}]}, {"smiles": "O=C(O)[C@H]1O[C@@H](Oc2cc3oc(-c4ccccc4)cc(=O)c3c(O)c2O)[C@H](O)[C@@H](O)[C@@H]1O", "note": "[baicalin]", "values": [{"measurement": "colon cancer", "setting": "[5]", "value": "inhibit colon cancer"}, {"measurement": "angiogenesis", "setting": "[6]", "value": "inhibit angiogenesis"}, {"measurement": "monocrotaline-induced pulmonary hypertension", "setting": "[7]", "value": "attenuate"}, {"measurement": "silica-induced lung inflammation and fibrosis", "setting": "[8]", "value": "alleviate"}]}, {"smiles": "S=C(S)N1CCCC1", "note": "[pyrrolidine dithiocarbamate]", "values": [{"measurement": "reversal of established angio-obliterative PAH", "setting": "[9]", "value": "reverse established angio-obliterative PAH"}]}]}
